Test [1] deals with erythropoietin (EPO). As to the kind of experiment: EPO expression in Hep3B cells (QUANTIKINE immunoassay of conditioned media). The format is cell-based, Human. The following applies: for Fold Increase Over Control: EPO, vs 1% DMSO control; for EPO: conditioned media after overnight incubation with compound. The protocol: The effect of compounds of the present invention on expression of cytoprotective and neuroprotective factors in cells was evaluated as follows. Human cells derived from hepatocarcinoma (Hep3B) tissue (see, e.g., American Type Culture Collection, Manassas Va.) were seeded into 35 mm culture dishes and grown at 37° C., 20% O2, 5% CO2 in Minimal Essential Medium (MEM), Earle's balanced salt solution (Mediatech Inc., Herndon Va.), 2 mM L-glutamine, 0.1 mM non-essential amino acids, 1 mM sodium pyruvate, and 10% FBS. When cell layers reached confluence, the media was replaced with OPTI-MEM media (Invitrogen Life Technologies, Carlsbad Calif.) and cell layers were incubated for approximately 24 hours in 20% O2, 5% CO2 at 37° C. Various compounds of the present invention or 1% DMSO (negative control) were then added to existing media and incubation was continued overnight.
Following incubation, the conditioned media was collected from cell cultures and analyzed for erythropoietin (EPO) expression using a QUANTIKINE immunoassay (R&D Systems, Inc., Minneapolis Minn.) according to the manufacturer's instructions.

The test system of test [2] is vascular endothelial growth factor (VEGF). As to the kind of experiment: VEGF expression in Kelly neuroblastoma cells. Type of test: cell-based. The note with it: for VEGF: conditioned media after overnight incubation. The protocol:
(§1) The effect of compounds of the present invention on expression of cytoprotective and neuroprotective factors in neuroblastoma cells was evaluated as follows. Kelly neuroblastoma cells (see, e.g., DSMZ, cat# ACC-355, Braunschweig Germany) were treated with various compounds of the present invention or 1% DMSO (negative control). Following an overnight incubation, the conditioned media was collected from cell cultures and analyzed for erythropoietin (EPO) and vascular endothelial growth factor (VEGF) expression using a QUANTIKINE immunoassay (R&D Systems, Inc., Minneapolis Minn.) according to the manufacturer's instructions.

Test [3] deals with erythropoietin (EPO). Put plainly: EPO expression in Kelly neuroblastoma cells. The format is cell-based. The following applies: for EPO: conditioned media after overnight incubation. The protocol: as §1
The next test relates to erythropoietin. As to the kind of experiment: Plasma EPO in mice after intravenous injection. The following applies: mouse plasma, 20 mg/kg i.v., four hours after injection; for fold induction at 20 mg/kg: iv, 4 h, read-out: EPO Fold Increase. The format is in vivo, Swiss Webster mice. The protocol: (§2) The effect of compounds of the present invention on expression of cytoprotective and neuroprotective factors in vivo was evaluated as follows. In one series of experiments, male Swiss Webster mice (29-34 g) were administered various compounds of the present invention via intravenous injection into the caudal tail vein. Animals treated by intravenous injection received a 6 ml/kg volume of either 5% Dextrose with an equimolar amount of NaOH or Meglumine (vehicle control) or 20 mg/kg of a compound of the present invention in 5% dextrose with an equimolar amount of NaOH or Meglumine. Four hours after injection, the animals were anesthetized and exsanguinated. Plasma samples were collected in EDTA and heparin coated microtainer tubes. Plasma samples were assayed for erythropoietin and VEGF using commercially-available ELISA kits purchased from R & D Systems (Minneapolis Minn.).

Test [4] concerns C57BL/6 mice, permanent occlusion of the MCA. Put plainly: Permanent middle cerebral artery occlusion (pMCAO) in C57BL/6 mice: infarct volume and edema. Type of test: in vivo. The note with it: Mus musculus, iv, 24 h, C57BL/6 mice pMCAO, 20-60 mg/kg i.v., compound given 0 hr; 24 hours after MCA occlusion; read-out: Percent Reduction in Infarct Volume. The protocol: The effect of compounds of the present invention on infarct volume and edema associated with stroke was examined in an animal model of ischemic stroke. In these studies, mice were subjected to permanent occlusion of the middle cerebral artery. Mice were anesthetized intraperitoneally with avertin (0.5 mg/g). Mice were then immobilized in a rodent stereotaxic frame (Kopf Instruments, Tujunga Calif.) and maintained with avertin as needed. The surgical area of the head was swabbed with 70% ethanol and a lateral incision was made between the right orbit and the right ear. […] The distal course of the middle cerebral artery (MCA) was visible through the translucent skull. A small burr-hole craniotomy was performed with a micro-drill (Fine Science Tools, Foster City Calif.). The meninges/dura was removed and the MCA was coagulated by bipolar diathermy. The muscle and soft tissue were replaced and the incision closed with vet-bond adhesive (3M, St. Paul Minn.). These studies were performed in two different mouse models of pMCAO as described below.
In one series of experiments, male C57BL/6 mice (25-35 g) were subjected to permanent occlusion of the MCA as described above. Compounds of the present invention were administered by intravenous injection at various times before or after MCA occlusion (see Table 7). Animals administered compound by intravenous injection received a 6 ml/kg volume of either 5% Dextrose with an equimolar amount of Meglumine (vehicle control) or 20-60 mg/kg of a compound of the present invention in 5% dextrose with an equimolar amount of Meglumine. Body temperature of the animals was maintained by use of a heating pad both during and after surgery. Twenty-four hours after MCA occlusion animals were euthanized with CO2 and their brains removed. After removal, the brain was sliced in 7 coronal sections, each 1 mm thick. The sections were placed rostral side down in a petri dish and stained with 1% Triphenyl tetrazolium chloride for 20 minutes at 37° C. for determination of infarct volume. Brain sections were then digitally photographed and analyzed for changes in infarct volume and extent of edema. Infarct volumes were determined by measuring the infarcted (i.e., non-stained) areas of each brain section and multiplying this value by the section thickness. Extent of edema was determined by the net increase in volume of the ipsilateral cortex compared to that of the contralateral cortex of brain sections.
The effect of compounds of the present invention administered at various times following the onset of stroke was examined further as follows. In these studies, changes in infarct volume were measured using an animal model of stroke when compounds of the present invention were administered from 0 to 8 hours following permanent MCA occlusion. In one series of experiments, male C57BL/6 mice (25-35 g) were subjected to permanent occlusion of the MCA as described above. Compound F was administered to the animals by a single intravenous bolus injection at various times up to 5 hours after MCA occlusion (see Table 8 below). Animals administered compound by intravenous injection received a 6 ml/kg volume of either 5% Dextrose with an equimolar amount of NaOH (vehicle control) or 60 mg/kg of Compound F in 5% dextrose with an equimolar amount of NaOH. Body temperature of the animals was maintained by use of a heating pad both during and after surgery. Changes in infarct volumes were determined as described above.
In another set of experiments, male C57BL/6 mice (25-35 g) were subjected to permanent occlusion of the MCA as described above. Compound F was administered by single intravenous bolus injection at various times up to 8 hours after MCA occlusion (see Table 9 below). Animals administered compound by intravenous injection received a 6 ml/kg volume of either 5% Dextrose with an equimolar amount of Meglumine (vehicle control) or 60 mg/kg of Compound F in 5% dextrose with an equimolar amount of Meglumine. […]

A further test deals with VEGF. As to the kind of experiment: Plasma VEGF in mice after intravenous injection. Type of test: in vivo, Swiss Webster mice. The following applies: mouse plasma, 20 mg/kg i.v., four hours after injection; for fold induction at 20 mg/kg: iv, 4 h, read-out: VEGF Fold Increase. The protocol: as §2

For `O=C(O)CNC(=O)c1ncc2cc(Oc3ccccc3)ccc2c1O` [Compound AC, [(4-Hydroxy-7-phenoxy-isoquinoline-3-carbonyl)-amino]acetic acid], in the test with erythropoietin (EPO) [1], the “Fold Increase Over Control” value is given as 10.8. Moreover, the EPO is on record as 160.1 mIU/ml in the test with erythropoietin (EPO) [1], 73.8 mIU/ml in the test on erythropoietin (EPO) [3] and 294 mIU/ml in the test on erythropoietin (human EPO ELISA kit (*)). In addition, the “VEGF Fold Increase” value in test [2] is on record as 15.8. In addition, the VEGF stood at 2503.8 pg/mL in test [2] and 70 pg/mL with VEGF. Moreover, in the test on erythropoietin (EPO) [3], the “EPO Fold Increase” value stood at 11.9. The values for the fold induction at 20 mg/kg with erythropoietin and in the test with VEGF were 2940 and 2.15, respectively. In addition, the inhibition in vivo at up to 20 mg/kg in test [4] was determined as 17%.

Regarding `Cc1nc2ccc(Oc3ccc4c(C#N)nc(C(=O)NCC(=O)O)c(O)c4c3)cc2o1` [Compound AQ, {[1-Cyano-4-hydroxy-6-(2-methyl-benzooxazol-6-yloxy)-isoquinoline-3-carbonyl]-amino}-acetic acid], in the test with erythropoietin (EPO) [1], the “Fold Increase Over Control” value is listed as 16.5 and the EPO was 32.9 mIU/ml. In addition, in test [2], the “VEGF Fold Increase” value amounted to 2.6 and the VEGF was found to be 3795 pg/mL. For the same compound, in the test on erythropoietin (EPO) [3], the “EPO Fold Increase” value is given as 4.34 and the EPO is 82 mIU/ml. Further, the fold induction at 20 mg/kg in the test on erythropoietin stood at 23.8. Moreover, the EPO in the test on erythropoietin (mouse EPO ELISA kit (**)) came out at 11464 pg/mL. Also, in the test with VEGF, the fold induction at 20 mg/kg amounted to 1.69 and the VEGF amounted to 59 pg/mL.

In the case of `N#Cc1nc(C(=O)NCC(=O)O)c(O)c2ccc(Cc3ccccc3)cc12` [Compound AR, [(7-Benzyl-1-cyano-4-hydroxy-isoquinoline-3-carbonyl)-amino]-acetic acid], in the test with erythropoietin (EPO) [1], the “Fold Increase Over Control” value is reported as 21.8 and the EPO amounted to 82.7 mIU/ml. In test [2], the “VEGF Fold Increase” value amounted to 10.8 and the VEGF stood at 14745 pg/mL. Moreover, in the test on erythropoietin (EPO) [3], the “EPO Fold Increase” value was determined as 32.17 and the EPO is 842.9 mIU/ml. Moreover, the fold induction at 20 mg/kg in the test with erythropoietin was 22.8. This compound also came in with an EPO with erythropoietin (mouse EPO ELISA kit (**)) of 11000 pg/mL. Moreover, in the test with VEGF, the fold induction at 20 mg/kg was found to be 0.83 and the VEGF was 29 pg/mL.

On to `CCc1c(O)c(C(=O)NCC(=O)O)nc2cc(Cl)ccc12` [Compound AT, [(7-Chloro-4-ethyl-3-hydroxy-quinoline-2-carbonyl)-amino]-acetic acid], for which, in the test on erythropoietin (EPO) [1], the “Fold Increase Over Control” value was found to be 30.0 and the EPO is given as 81.0 mIU/ml. Also, in test [2], the “VEGF Fold Increase” value came to 8.3 and the VEGF is 11350 pg/mL. In the test with erythropoietin (EPO) [3], the “EPO Fold Increase” value is given as 31.08 and the EPO is on record as 587.5 mIU/ml. For the same compound, the fold induction at 20 mg/kg in the test with erythropoietin stood at 3.84. For the same compound, the EPO in the test with erythropoietin (mouse EPO ELISA kit (**)) is 169 pg/mL. For the same compound, in the test with VEGF, the fold induction at 20 mg/kg is 1.02 and the VEGF came to 43 pg/mL.

Turning to `O=C(O)CNC(=O)c1nc2cc(-c3ccc(Cl)cc3)sc2cc1O` [Compound Q, {[2-(4-Chloro-phenyl)-6-hydroxy-thieno[3,2-b]pyridine-5-carbonyl]-amino}-acetic acid], in the test with erythropoietin (EPO) [1], the “Fold Increase Over Control” value is 4.8 and the EPO was 37.1 mIU/ml. For the same compound, in test [2], the “VEGF Fold Increase” value turned out to be 4.4 and the VEGF stood at 6369 pg/mL. In the test with erythropoietin (EPO) [3], the “EPO Fold Increase” value came out at 2.80 and the EPO was determined as 52.9 mIU/ml. In the test with erythropoietin, the fold induction at 20 mg/kg was determined as 1.61. Also, in the test with erythropoietin (mouse EPO ELISA kit (**)), the EPO came out at 17.1 pg/mL. Besides, in the test on VEGF, the fold induction at 20 mg/kg worked out at 1.28 and the VEGF was determined as 50 pg/mL.

Turning to `N#Cc1nc(C(=O)NCC(=O)O)c(O)c2ccc(Cl)cc12` [Compound S, [(7-Chloro-1-cyano-4-hydroxy-isoquinoline-3-carbonyl)-amino]-acetic acid], in the test on erythropoietin (EPO) [1], the “Fold Increase Over Control” value is given as 10.1 and the EPO is reported as 12.5 mIU/ml. Besides, in test [2], the “VEGF Fold Increase” value came to 1.9 and the VEGF worked out at 725 pg/mL. In the test on erythropoietin (EPO) [3], the “EPO Fold Increase” value came to 2.89 and the EPO turned out to be 40.4 mIU/ml. For the same compound, the fold induction at 20 mg/kg with erythropoietin worked out at 40.8. In addition, the EPO in the test with erythropoietin (mouse EPO ELISA kit (**)) amounted to 460.6 pg/mL. In the test with VEGF, the fold induction at 20 mg/kg came out at 0.68 and the VEGF was 15 pg/mL.

As to `O=C(O)CNC(=O)c1nc2cc(Cl)ccc2c(I)c1O` [Compound T, [(7-Chloro-3-hydroxy-4-iodo-quinoline-2-carbonyl)-amino]acetic acid], in the test on erythropoietin (EPO) [1], the “Fold Increase Over Control” value was 49.3 and the EPO came to 100.7 mIU/ml. For the same compound, in test [2], the “VEGF Fold Increase” value is given as 5.6 and the VEGF came to 8159 pg/mL. In addition, in the test with erythropoietin (EPO) [3], the “EPO Fold Increase” value was found to be 15.83 and the EPO was found to be 299.1 mIU/ml. The fold induction at 20 mg/kg with erythropoietin was 4.65. The compound further registered an EPO with erythropoietin (mouse EPO ELISA kit (**)) of 498 pg/mL. Moreover, in the test with VEGF, the fold induction at 20 mg/kg is 1.24 and the VEGF turned out to be 31 pg/mL.
